The values below come from patent US20220213047A1, “CARBONIC ANHYDRASE INHIBITORS FOR TREATMENT OF NEISSERIA GONORRHOEAE INFECTION” (Purdue Research Foundation, priority 2021, published 2022).

≈ marks a conversion by molar mass, not a printed value.

What is called MIC is the smallest concentration in the dilution series that meets the test's criterion for growth inhibition. A high value points to weaker potency.

One assay relates to ATCC strain 700825. The assay is described as follows: MICs against ATCC strain 700825. It is filed as cell-based, N. gonorrhoeae. The following applies: Neisseria gonorrhoeae. The method, then:
(§1) These tests were performed in normal culture conditions with standard CO2 levels and in CO2 (5% in incubator) conditions.

Assay [1] deals with N. gonorrhoeae. Kind of assay: MIC against N. gonorrhoeae clinical isolates, normal and CO2 conditions. It is filed as cell-based. The following applies: Neisseria gonorrhoeae. The method, then:
as §1

In assay [2] the test system is N. gonorrhoeae. Kind of assay: Post-antibiotic effect (PAE). It is filed as cell-based. The following applies: after exposure to 10×MIC for 1 hour.
In assay [3] the test system is N. gonorrhoeae. The assay is described as follows: Multi-step resistance selection. The following applies: after 9 passages. It is filed as cell-based. From the text:
Frequency of mutation—multi-step mutation—We investigated N. gonorrhoeae's ability to develop resistance to CAIs using the multi-step resistance selection experiment^58.
N. gonorrhoeae cultures that grew at the highest concentrations of the compound are used as an inoculum for the subsequent culture.

In assay [4] the test system is intracellular N. gonorrhoeae. The assay is described as follows: Intracellular clearance of N. gonorrhoeae in infected endocervical cells (End1/E6E7). It is filed as cell-based. The following applies: 5×MIC, 24 hours. From the text: Intracellular clearance of N. gonorrhoeae—N. gonorrhoeae is known to invade epithelial cells of the genital tract and cross the epithelial barrier into the subepithelial space^59. Previous studies have shown that N. gonorrhoeae can survive inside host cells and pass epithelial cell layers (a key step in causing disseminated infections)^60,61. Therefore, a drug candidate must also be able to kill intracellular N. gonorrhoeae in order to be an effective therapeutic. Also, we were concerned that CAIs have reduced activity in high-CO2 conditions and may not be suitable to treat intracellular infection. Thus, we examined CAIs ability to reduce the burden of intracellular N. gonorrhoeae present in infected endocervical cells^56.

[5] abbreviates: N. gonorrhoeae 178, Non CO2 environment.
Where [6] appears, read: N. gonorrhoeae 178, normal growth environment (with CO2).
The mark [7] stands for this setting: N. gonorrhoeae 181, Non CO2 environment.
The mark [8] stands for this setting: N. gonorrhoeae 181, normal growth environment (with CO2).
[9] abbreviates: N. gonorrhoeae 194, Non CO2 environment.
The mark [10] stands for this setting: N. gonorrhoeae 194, normal growth environment (with CO2).

Consider `NS(=O)(=O)c1nnc(NC(=O)CCc2ccccc2)s1` [CAI 0041], for which the MIC in the assay on ATCC strain 700825 (ATCC700825, In CO2) worked out at 4 µg/mL (≈ 12.8 µM); against ATCC strain 700825 (ATCC700825, In air), 0.5 µg/mL (≈ 1.6 µM).

`NS(=O)(=O)c1nnc(NC(=O)CN2CCOCC2)s1` [CAI 0031]: the MIC against ATCC strain 700825 (ATCC700825, In CO2) was 128 µg/mL (≈ 416 µM); with ATCC strain 700825 (ATCC700825, In air), 32 µg/mL (≈ 104 µM); in the assay with N. gonorrhoeae [1] (setting [5]), 32 µg/mL (≈ 104 µM); in the assay on N. gonorrhoeae [1] (setting [6]) it was 64 µg/mL (≈ 208 µM); in the assay with N. gonorrhoeae [1] (setting [7]), greater than 64 µg/mL; in the assay with N. gonorrhoeae [1] (setting [8]), greater than 64 µg/mL. Moreover, the MIC in the assay on N. gonorrhoeae [1] (setting [9]) was 64 µg/mL (≈ 208 µM); with N. gonorrhoeae [1] (setting [10]), greater than 64 µg/mL.

In the case of `NS(=O)(=O)c1nnc(NC(=O)CC2CC2)s1` [CAI 0040], the MIC against ATCC strain 700825 (ATCC700825, In CO2) is 32 µg/mL (≈ 122 µM); against ATCC strain 700825 (ATCC700825, In air), 16 µg/mL (≈ 61 µM).

For `CC[C@H]1OC(=O)[C@H](C)[C@@H](O[C@H]2C[C@@](C)(OC)[C@@H](O)[C@H](C)O2)[C@H](C)[C@@H](O[C@@H]2O[C@H](C)C[C@H](N(C)C)[C@H]2O)[C@](C)(O)C[C@@H](C)CN(C)[C@H](C)[C@@H](O)[C@]1(C)O` [Azithromycin], the minimal inhibitory concentration (MIC) is 0.25 µg/mL (≈ 0.334 µM) in the assay with N. gonorrhoeae [1] (setting [5]); 1 µg/mL (≈ 1.34 µM) in the assay with N. gonorrhoeae [1] (setting [6]); greater than 128 µg/mL against N. gonorrhoeae [1] (setting [7]); greater than 128 µg/mL in the assay with N. gonorrhoeae [1] (setting [8]); 0.25 µg/mL (≈ 0.334 µM) against N. gonorrhoeae [1] (setting [9]); 0.5 µg/mL (≈ 0.668 µM) in the assay with N. gonorrhoeae [1] (setting [10]). The PAE with N. gonorrhoeae [2] (Ng 181), in the assay with N. gonorrhoeae [2] (Ng 186), in the assay with N. gonorrhoeae [2] (Ng 194), with N. gonorrhoeae [2] (Ng 198) and in the assay with N. gonorrhoeae [2] (clinical isolates of N. gonorrhoeae) was 8 h throughout.

On to `O=C(O)c1cn(C2CC2)c2cc(N3CCNCC3)c(F)cc2c1=O` [Ciprofloxacin], for which the “increase in MIC” value in the assay on N. gonorrhoeae [3] worked out at 300 fold.

Take `CO/N=C(\C(=O)N[C@@H]1C(=O)N2C(C(=O)O)=C(CSc3nc(=O)c(=O)[nH]n3C)CS[C@H]12)c1csc(N)n1` [ceftriaxone]: the “reduction in N. gonorrhoeae inside infected endocervical cells” value in assay [4] was 0.32 log10.

Regarding `NS(=O)(=O)c1nnc(NC(=O)CCC2CCCCC2)s1` [CAI 0019], the MIC stood at 32 µg/mL (≈ 100 µM) against ATCC strain 700825 (ATCC700825, In CO2); 4 µg/mL (≈ 12.6 µM) in the assay on ATCC strain 700825 (ATCC700825, In air); 4 µg/mL (≈ 12.6 µM) with N. gonorrhoeae [1] (setting [5]); 64 µg/mL (≈ 201 µM) with N. gonorrhoeae [1] (setting [6]); 1 µg/mL (≈ 3.14 µM) against N. gonorrhoeae [1] (setting [7]); 64 µg/mL (≈ 201 µM) with N. gonorrhoeae [1] (setting [8]). In addition, the results for the MIC with N. gonorrhoeae [1] (setting [9]) and against N. gonorrhoeae [1] (setting [10]) were 2 µg/mL (≈ 6.28 µM) and greater than 64 µg/mL, respectively.
